Results reported in PubChem BioAssay (NCI).
Values joined by “and” are separate entries in the source; they are usually repeats but may differ in a detail not shown here. Equal values may be shown once.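 Method: 48-hour compound exposure of cells in 96-well plates, five concentrations, linear interpolation of endpoints. Abbreviation: GI50, concentration required for 50% inhibition of growth. TGI is the concentration that stops growth completely.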

Key:
Experiment in all cases: inhibition of tumour cell growth, NCI panel, 48 h
DMS 114 small cell lung = tested on: DMS 114 small cell lung
HCT-116 colon = tested on: HCT-116 colon
HOP-18 NSCLC = tested on: HOP-18 NSCLC
HT29 colon = tested on: HT29 colon
K-562 leukemia = tested on: K-562 leukemia
LOX IMVI melanoma = tested on: LOX IMVI melanoma
SF-539 CNS = tested on: SF-539 CNS
SK-MEL-5 melanoma = tested on: SK-MEL-5 melanoma
SK-OV-3 ovarian = tested on: SK-OV-3 ovarian
SN12C renal = tested on: SN12C renal
UO-31 renal = tested on: UO-31 renal

| Compound | TGI (DMS 114 small cell lung) [µM] | TGI (HCT-116 colon) | TGI (HOP-18 NSCLC) [µM] | TGI (HT29 colon) [µM] | TGI (K-562 leukemia) [µM] | TGI (LOX IMVI melanoma) | TGI (SF-539 CNS) | TGI (SK-MEL-5 melanoma) | TGI (SK-OV-3 ovarian) | TGI (SN12C renal) | TGI (UO-31 renal) [µM] | GI50 (HCT-116 colon) [µM] | GI50 (HT29 colon) [µM] | GI50 (K-562 leukemia) [µM] | GI50 (LOX IMVI melanoma) [µM] | GI50 (SF-539 CNS) [µM] | GI50 (SK-MEL-5 melanoma) [µM] | GI50 (SN12C renal) [µM] | GI50 (UO-31 renal) [µM] |
| --- | --- | --- | --- | --- | --- | --- | --- | --- | --- | --- | --- | --- | --- | --- | --- | --- | --- | --- | --- |
| CN(C)c1ccc(/C=C/C(=O)O)cc1 | > 100 | > 100 µM | > 100 | > 100 | > 100 | > 100 µM | > 100 µM | > 100 µM | > 100 µM | > 100 µM | > 100 |  |  |  |  |  |  |  |  |
| Cn1ccnc1CCc1ccc(Cl)c(Cl)c1 | > 100 | > 100 µM | > 100 | > 100 | > 100 | > 100 µM | > 100 µM | > 100 µM | > 100 µM | > 100 µM | > 100 |  |  |  |  |  |  |  |  |
| C[n+]1c2ccccc2c(/C=N\NS(=O)(=O)c2ccc(Cl)cc2)c2ccccc21 | > 100 | > 100 µM |  | > 100 | > 100 | > 100 µM | > 100 µM | > 100 µM | > 100 µM | > 100 µM | > 100 |  |  |  |  |  |  |  |  |
| CCN(CC)CCOC(=O)Cc1cccc2c(=O)cc(-c3ccccc3)oc12 | 137 | 62.5 µM and > 153 µM | > 126 |  |  | 35.1 µM and > 240 µM | 62.5 µM and > 179 µM | 62.5 µM and > 186 µM | 62.5 µM and > 108 µM | 62.5 µM and > 320 µM |  | 85.1 | 530 | 406 | 45.3 | 58.6 | 81.5 | 92.8 | 295 |
| O=[N+]([O-])c1ccc([N+]2=NC(c3ccccc3)=NN(c3ccccc3)C2)cc1 | 94.1 | > 100 µM | > 100 | > 100 | > 100 | > 100 µM | > 100 µM | > 100 µM | > 100 µM | > 100 µM | > 100 |  |  |  |  |  |  |  |  |
| COc1cccc(-c2nccc3c(OCc4ccccc4)c(OC)c(OC)cc23)c1 | > 100 | > 100 µM |  | > 100 | > 100 | > 100 µM | > 100 µM | > 100 µM | > 100 µM | > 100 µM | > 100 |  |  |  |  |  |  |  |  |
| Cc1c(-c2nnc(-c3ccccc3)o2)c(=O)n(-c2ccccc2)n1C | > 100 | > 100 µM | > 100 | > 100 | > 100 | > 100 µM | > 100 µM |  | > 100 µM | > 100 µM | > 100 |  |  |  |  |  |  |  |  |
| O=C(CSc1nnc(-c2ccc(N=Cc3ccc(Cl)cc3)cc2)o1)Nc1ccc([N+](=O)[O-])cc1 | 32.9 | 9.43 µM | > 100 | 35.9 | 97.1 | 22.4 µM |  | 67.9 µM | > 100 µM | 37.7 µM | 37.2 |  |  |  |  |  |  |  |  |
| CCCCn1c2ccccc2c2ccc3c(c21)C(=O)C=CC3=O | > 100 | > 100 µM | > 100 | 3.46 | > 100 | > 100 µM | > 100 µM | > 100 µM | > 100 µM | > 100 µM | > 100 |  |  |  |  |  |  |  |  |
| COc1cc2c(cc1OC)[C@@](C)(C(O)C(O)C(C)(C)O)NCC2 (some centres undefined) |  | > 100 µM |  | > 100 | > 100 | > 100 µM | > 100 µM | > 100 µM | > 100 µM | > 100 µM | > 100 |  |  |  |  |  |  |  |  |
